# Columns and labels:
# [1] = system: D-17 canine osteosarcoma cells; assay: Inhibition of D-17 cell proliferation (MTT); assay type: cell-based; settings: 100 μg/ml, 48 h, 5×10^5 cells/ml
# Description: (§1) Cells were seeded in 6 (1 ml/well), 24 (0.5 ml/well) or 96 (0.1 ml/well) well flat-bottom microplates and were maintained at 37° C. in a 5% CO2 atmosphere. Unless stated otherwise, 2.5×10^5 cells/ml were incubated with 0 μg/ml (control) and 100 μg/ml (treated) of 2 to 45 base sequences containing A, C, G and T for 48 h.
# (§2) Cell proliferation was measured using dimethylthiazol-diphenyl-tetrazolium (MTT) reduction (Mosman et al. J. Immunol. Methods 65:55, 1983). MTT was measured at a wavelength of 570 nm using a multiplate spectrophotometer reader (ELX800, Bio-TEK Instruments Inc., Winooski, Vt.).
# (§3) D-17 canine osteosarcoma cells and CF-51 canine mammary gland cancer cells are solid tumor models. D-17 canine osteosarcoma cells (5×10^5 cells/ml) (Table 20) and CF-51 canine mammary gland cancer cells (5×10^5 cells/ml) (Table 21) were incubated with 6, 9, 17, 27 and 33 base GT-sequences and with a 15 base ACG sequence.
# [2] = system: EL-4 murine T lymphoma cells; assay: Inhibition of EL-4 cell proliferation (MTT); assay type: cell-based; settings: 100 μg/ml, 48 h
# Description: as §1, §2
# EL-4 murine lymphoma T cells are a suspension tumor model. EL-4 murine lymphoma T cells were incubated with 6, 18, 27 and 33 base GT sequences and with a 15 base ACG sequence (Table 18).
# [3] = system: CF-51 canine mammary gland cancer cells; assay: Inhibition of CF-51 cell proliferation (MTT); assay type: cell-based; settings: 100 μg/ml, 48 h, 5×10^5 cells/ml
# Description: as §1, §2, §3
# [4] = system: Jurkat human leukemia T cells; assay: Apoptosis by phosphatidylserine/annexin V-FITC flow cytometry; assay type: cell-based; settings: M. phlei murA derived sequences
# In short: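 Jurkat cells were exposed to 3–7-base oligonucleotides (GT, ACGT, AG, GG, AGT, CGT sequences) at 50 μM. Separately, 6-base GT and complementary AC sequences, alone or hybridized 1:1 (10 min, 65 °C), were applied for 24 h. Phosphatidylserine exposure was quantified by flow cytometry with FITC-annexin V.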
# [5] = system: caspase 3; assay: Caspase 3 activation, colorimetric (p-nitroanilide peptide cleavage); assay type: cell-based, human; settings: Jurkat, 72 h, 100 μg/ml
# Description: (§4) To determine caspase activation, control and treated cells are washed, fixed, permeabilized and incubated with an FITC-conjugated antibody that recognizes the active form of the caspase (Pharmingen, San Diego, Calif.) using the conditions recommended by the manufacturer. Fluorescence associated with active caspase 3 is analyzed by flow cytometry on a FACSCALIBUR using the program CellQUEST (Becton Dickinson). Alternatively, caspase activation is determined colorimetrically using an assay based on the cleavage of a caspase-specific peptide conjugated to the color reporter molecule p-nitroanilide, which can be quantitated spectrophotometrically at a wavelength of 405 nm.
# (§5) Jurkat T cell leukemia cells were incubated for 72 h with 33 base GT SEQ ID NO:66; 11 base GT SEQ ID NO:81 (bases 1-11 of GT SEQ ID NO:66), 11 base GT SEQ ID NO:82 (bases 12-22 of GT SEQ ID NO:66), 11 base GT SEQ ID NO:83 (bases 23-33 of GT SEQ ID NO:66) and 15 base ACG SEQ ID NO:67. Active caspase 3 (17-22 kDa) was determined using FITC conjugated antibody (Clone: C92-605) as in Example 28.
# Caspase 3 activation also was determined colorimetrically as in Example 28.
# Jurkat T cell leukemia cells were incubated for 72 h with 6 base GT SEQ ID NO:25. Caspase 3 activation was determined colorimetrically as in Example 28.
# [6] = system: caspase 3; assay: Active caspase 3 by FITC-conjugated antibody flow cytometry; assay type: cell-based, human; settings: Jurkat, 72 h, 100 μg/ml, cytometric (FIG. 2A)
# Description: as §4, §5
# [7] = system: Jurkat human leukemia T cells; assay: Inhibition of Jurkat human leukemia T cell proliferation (MTT reduction); assay type: cell-based; settings: for % INHIBITION of Jurkat human leukemia T cell proliferation: 100 μg/ml sequence, 48 h, 2.5×10^5 cells/ml
# In short: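 Jurkat cells at 2.5×10^5 cells/ml exposed to 100 μg/ml of 2–45-base A/C/G/T sequences (0 μg/ml control) for 48 h, 37° C, 5% CO2. Viability by MTT reduction read at 570 nm.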
# [8] = system: Jurkat human leukemia T cells; assay: Cell cycle stage in Jurkat cells (propidium iodide flow cytometry); assay type: cell-based; settings: Jurkat; for % of cells in phase: G0/G1 / % of cells in phase: G2/M / % of cells in phase: SE / % of cells in phase: SL / % of cells in phase: SM / Arrest (cell cycle): 24 h, 100 μg/ml; for cell cycle arrest: M. phlei murA derived sequences
# In short: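 Exponentially growing Jurkat cells were exposed for 24 h to 2–45-base A/C/G/T oligonucleotides, or at 1×10^6 cells/ml to 6-base GT and AC strands, alone (heated 10 min, 65 °C) or hybridized 1:1. Detergent-, trypsin-, RNase- and spermine-treated nuclei were propidium iodide-stained and scored for G0/G1, early/mid/late S and G2/M by doublet-discriminating flow cytometry.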
# [9] = Melting temperature (Tm) of sequences; assay type: physicochemical
# [10] = system: Jurkat human leukemia T cells; assay: NuMA release into supernatant (ELISA); assay type: cell-based; settings: Jurkat 1×10^6/ml
# In short: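 Jurkat T cells (1×10^6/ml) exposed to GT-containing oligonucleotide sequences, at 50 μM in some experiments, for 24 h in some experiments. NuMA released into the supernatant quantified by commercial ELISA.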
# [11] = system: EL-4 murine T lymphoma cells; assay: EL-4 murine T lymphoma in C57/BL6 mice; assay type: in vivo; settings: after 4 weeks of treatment, compared with group 1 (saline)
# Description: EL-4 murine T lymphoma cells are implanted into C57/BL6 mice. The mice are divided into 6 groups of 10 mice. On day 0, group 1 mice receive saline, group 2 mice receive 3 base GT SEQ ID NO:8, group 3 mice receive 6 base SEQ ID NO:25, group 4 mice receive 6 base AG SEQ ID NO:45, group 5 mice receive 18 base GT SEQ ID NO: 18 and group 6 mice receive 27 base GT SEQ ID NO:1. After 4 weeks of treatment, the mice are sacrificed and tumor mass is determined.
# [12] = system: MCF-7 human breast cancer cells; assay: Inhibition of MCF-7 cell proliferation (MTT); assay type: cell-based
# In short: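 Cells at 2.5×10^5 cells/ml (GT 3- and 6-base series at 5×10^5 cells/ml) treated with 100 μg/ml of 2-45-base oligonucleotide sequences versus untreated control for 48 h at 37 °C, 5% CO2. Proliferation read by MTT reduction at 570 nm.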
# [13] = 5-fluorouracil 0.1 μg/ml, alone or with sequence at 1.0 μg/ml
# [14] = 5-fluorouracil 1.0 μg/ml, alone or with sequence at 1.0 μg/ml
# [15] = 5-fluorouracil 10.0 μg/ml, alone or with sequence at 1.0 μg/ml
# [16] = sequence at 1.0 μg/ml, 5-fluorouracil 0.0 μg/ml
sequence,measurement,setting,value
"AACCACAAGCCCAAC (DNA, backbone not given here) [SEQ ID NO:67]",% INHIBITION of D-17 canine osteosarcoma cell proliferation,[1],20%
same,% INHIBITION of EL-4 murine T lymphoma cell proliferation,[2],−6%
same,% INHIBITION of CF-51 canine mammary gland cancer cell proliferation,[3],20%
same,% at cells in apoptosis,[4],0%
same,caspase 3 activity greater than in control cells,[5],approximately the same as in control cells
same,processing of inactive pro-caspase 3 to active caspase 3,[6],did not induce processing of inactive pro-caspase 3 to active caspase 3
same,% INHIBITION of Jurkat human leukemia T cell proliferation,[7],4%
same,% of cells in phase: G0/G1,[8],39.6%
same,% of cells in phase: G2/M,[8],24.6%
same,% of cells in phase: SE,[8],13.5%
same,% of cells in phase: SL,[8],9.5%
same,% of cells in phase: SM,[8],12.8%
same,Arrest (cell cycle),[8],None
same,cell cycle arrest,[8],No
GGGTGGGGGTGG [SEQ ID NO:68],% INHIBITION of Jurkat human leukemia T cell proliferation,[7],18%
same,melting temperature (Tm),[9],56.8 °C
GGGTGGGGGTGGGGGTGG [SEQ ID NO:69],% INHIBITION of Jurkat human leukemia T cell proliferation,[7],5%
same,melting temperature (Tm),[9],76.3 °C
GGGTGGGGGTGGGGGTGGGGGTGG (unmodified DNA) [SEQ ID NO:70],% INHIBITION of Jurkat human leukemia T cell proliferation,[7],13%
same,melting temperature (Tm),[9],86.3 °C
GGTTTTGTTTG (unmodified DNA) [SEQ ID NO:82],% at cells in apoptosis,[4],25%
same,caspase 3 activity greater than in control cells,[5],100%
same,processing of inactive pro-caspase 3 to active caspase 3,[6],induced processing of inactive pro-caspase 3 to active caspase 3
same,% INHIBITION of Jurkat human leukemia T cell proliferation,[7],20%
same,"proliferation, cell cycle arrest and apoptosis of Jurkat T cells (summary in words)",[7]; M. phlei murA derived sequences,"inhibited proliferation of, induced cell cycle arrest in and induced apoptosis of Jurkat T cells"
same,cell cycle arrest,[8],End SE
GTGTGTGTGTGTGTGTGTGTGTGTGTG [SEQ ID NO:1] (chemistry not given here),% NUMA RELEASED,[10],22%
same,% INHIBITION of D-17 canine osteosarcoma cell proliferation,[1],23%
same,tumor mass,[11],less tumor mass than group 1 mice
same,% INHIBITION of EL-4 murine T lymphoma cell proliferation,[2],1%
same,% INHIBITION of CF-51 canine mammary gland cancer cell proliferation,[3],23%
same,"% INHIBITION of MCF-7 proliferation, 5-Fluorouracil 0.1 μg/ml",[12]; [13],24%
same,"% INHIBITION of MCF-7 proliferation, 5-Fluorouracil 1.0 μg/ml",[12]; [14],35%
same,"% INHIBITION of MCF-7 proliferation, 5-Fluorouracil 10.0 μg/ml",[12]; [15],33%
same,potentiation of antineoplastic effect of 5-fluorouracil on MCF-7 cell proliferation,"[12]; sequence 1.0 μg/ml, 0.1 μg/ml 5-fluorouracil",did not potentiate
same,potentiation of antineoplastic effect of tamoxifen on MCF-7 cell proliferation,"[12]; sequence 1.0 μg/ml, 0.1 μg/ml tamoxifen",did not potentiate
same,"% INHIBITION of MCF-7 proliferation, 5-Fluorouracil 0.0 μg/ml",[12]; [16],8%
same,"% INHIBITION of MCF-7 proliferation, Tamoxifen 0.0 μg/ml","[12]; sequence at 1.0 μg/ml, tamoxifen 0.0 μg/ml",8%
same,"% INHIBITION of MCF-7 proliferation, Tamoxifen 0.1 μg/ml","[12]; tamoxifen 0.1 μg/ml, alone or with sequence at 1.0 μg/ml",19%
same,"% INHIBITION of MCF-7 proliferation, Tamoxifen 1.0 μg/ml","[12]; tamoxifen 1.0 μg/ml, alone or with sequence at 1.0 μg/ml",24%
same,"% INHIBITION of MCF-7 proliferation, Tamoxifen 10.0 μg/ml","[12]; tamoxifen 10.0 μg/ml, alone or with sequence at 1.0 μg/ml",20%
same,% INHIBITION of Jurkat human leukemia T cell proliferation,[7],51%
same,"% INHIBITION of Jurkat proliferation, 5-Fluorouracil 0.1 μg/ml",[7]; [13],15%
same,"% INHIBITION of Jurkat proliferation, 5-Fluorouracil 1.0 μg/ml",[7]; [14],25%
same,"% INHIBITION of Jurkat proliferation, 5-Fluorouracil 10.0 μg/ml",[7]; [15],41%
same,"% INHIBITION of Jurkat proliferation, Cisplatin 0.1 μg/ml","[7]; cisplatin 0.1 μg/ml, alone or with sequence at 1.0 μg/ml",18%
same,"% INHIBITION of Jurkat proliferation, Cisplatin 1.0 μg/ml","[7]; cisplatin 1.0 μg/ml, alone or with sequence at 1.0 μg/ml",35%
same,"% INHIBITION of Jurkat proliferation, Cisplatin 10.0 μg/ml","[7]; cisplatin 10.0 μg/ml, alone or with sequence at 1.0 μg/ml",76%
same,potentiation of antineoplastic effect of 5-fluorouracil on Jurkat T cell proliferation,"[7]; sequence 1.0 μg/ml, 0.1 and 1.0 μg/ml 5-fluorouracil",potentiated
same,"% INHIBITION of Jurkat proliferation, 5-Fluorouracil 0.0 μg/ml",[7]; [16],3%
same,"% INHIBITION of Jurkat proliferation, Cisplatin 0.0 μg/ml","[7]; sequence at 1.0 μg/ml, cisplatin 0.0 μg/ml",3%
same,% of cells in phase: G0/G1,[8],40.6%
same,% of cells in phase: G2/M,[8],0.3%
same,% of cells in phase: SE,[8],35.6%
same,% of cells in phase: SL,[8],9.3%
same,% of cells in phase: SM,[8],14.2%
same,Arrest (cell cycle),[8],End SE
"GTGTGTTTGGTGGTTTTGTTTGTTGTTTTTTTG (DNA, backbone not given here) [SEQ ID NO:66]",% INHIBITION of D-17 canine osteosarcoma cell proliferation,[1],23%
same,% INHIBITION of EL-4 murine T lymphoma cell proliferation,[2],−1%
same,% INHIBITION of CF-51 canine mammary gland cancer cell proliferation,[3],23%
same,caspase 3 activity greater than in control cells,[5],105%
same,processing of inactive pro-caspase 3 to active caspase 3,[6],induced processing of inactive pro-caspase 3 to active caspase 3
